Measurements: patent publication US20100331298A1, “Carboxamide Compounds and Their Use” (CytoPathfinder, Inc., priority 2007, published 2010)
Counter-ions that a name gives are not always drawn.

biological target: T1, CCR2b (Homo sapiens, UniProt P41597); experiment: AequoScreen assay, Ca++ flux (antagonist mode against reference agonist MCP-1); assay type: cell-based; conditions: AequoScreen CCR2b (FAST-060A) cells; inhibition of reference agonist MCP-1 at its EC80
T1 construct: host or cells: AequoScreen CCR2b cells
T1 sequence (P41597 1-360 isoform P41597-2): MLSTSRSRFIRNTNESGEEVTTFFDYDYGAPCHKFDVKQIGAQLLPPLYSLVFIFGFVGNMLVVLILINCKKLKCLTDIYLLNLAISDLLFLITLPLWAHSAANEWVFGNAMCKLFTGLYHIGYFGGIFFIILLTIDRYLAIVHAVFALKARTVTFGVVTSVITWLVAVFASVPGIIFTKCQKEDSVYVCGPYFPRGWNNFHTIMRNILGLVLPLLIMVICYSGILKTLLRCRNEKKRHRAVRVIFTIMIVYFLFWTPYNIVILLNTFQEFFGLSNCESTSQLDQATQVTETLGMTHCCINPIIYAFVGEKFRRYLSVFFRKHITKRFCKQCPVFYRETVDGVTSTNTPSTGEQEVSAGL
Procedure: The biological activity of the compounds described herein can be evaluated using assays known in the art, such as the AequoScreen™ assay.
AequoScreen™ CCR2b (FAST-060A) cells grown to mid-log phase in culture media without antibiotics are detached with PBS-EDTA, centrifuged and resuspended in assay buffer (DMEM/HAM's F12 with HEPES, without phenol red+0.1% BSA protease free) at a concentration of 1×10^6 cells/mL. Cells are incubated at room temperature for at least 4 hours with coelenterazine h. Dose response curves are performed before testing. The reference agonist is MCP-1.
For agonist testing, 50 μL of cell suspension is mixed with 50 μL of test compound in a 96-well plate. The resulting emission of light is recorded using a Hamamatsu Functional Drug Screening System 6000 (FDSS 6000).
Following an incubation of 15 minutes after the first injection, 100 μL of the resulting cell suspension containing the test compound is mixed with 100 μL of the reference agonist in the 96 well test plate. The resulting emission of light is recorded using the same luminometer as for agonist testing.
To standardize the emission of recorded light (determination of the “100% signal”) across plates and across different experiments, some of the wells contained 100 μM digitonin, a saturating concentration of ATP (20 μM) and a concentration of reference agonist equivalent to the EC50 obtained during test validation.
Agonist activity of a test compound can be expressed as a percentage of the activity of the reference agonist at its EC100 concentration. Antagonist activity of a test compound can be expressed as a percentage of the inhibition of reference agonist activity at its EC80) concentration.

Going from Cn1c(=O)ccc2ccc(CN3CCC(CC4CC4)(C(=O)NCc4cc(C(F)(F)F)cc(C(F)(F)F)c4)CC3)cc21 [Example 1, N-(3,5-Bis(trifluoromethyl)benzyl)-4-(cyclopropylmethyl)-1-((1-methyl-2-oxo-1,2-dihydroquinolin-7-yl)methyl)piperidine-4-carboxamide] to Cn1c(=O)ccc2ccc(CN3CCC(C(=O)NCc4cc(C(F)(F)F)cc(C(F)(F)F)c4)(C4CC4)CC3)cc21 [Example 3, N-(3,5-Bis(trifluoromethyl)benzyl)-4-cyclopropyl-1-((1-methyl-2-oxo-1,2-dihydroquinolin-7-yl)methyl)piperidine-4-carboxamide], the IC50 rises from < 0.2 µM to > 1 µM.

O=C1COc2ccc(C(O)CN3CCC(CC4CC4)(C(=O)NCc4cc(C(F)(F)F)cc(C(F)(F)F)c4)CC3)cc2N1 (stereo not drawn) [Example 5, N-(3,5-Bis(trifluoromethyl)benzyl)-4-(cyclopropylmethyl)-1-(2-hydroxy-2-(3-oxo-3,4-dihydro-2H-benzo[b][1,4]oxazin-6-yl)ethyl)piperidine-4-carboxamide] and O=C1COc2ccc(CN3CCC(CC4CC4)(C(=O)NCc4cc(C(F)(F)F)cc(C(F)(F)F)c4)CC3)cc2N1 [Example 6, N-(3,5-Bis(trifluoromethyl)benzyl)-4-(cyclopropylmethyl)-1-((3-oxo-3,4-dihydro-2H-benzo[b][1,4]oxazin-6-yl)methyl)piperidine-4-carboxamide] cannot be ordered by IC50: > 1 µM for the first, > 1 µM for the second.

First: O=C(NCc1cc(C(F)(F)F)cc(C(F)(F)F)c1)C1(CC2CC2)CCN(Cc2ccc3cc[nH]c(=O)c3c2)CC1 [Example 8, N-(3,5-Bis(trifluoromethyl)benzyl)-4-(cyclopropylmethyl)-1-((1-oxo-1,2-dihydroisoquinolin-7-yl)methyl)piperidine-4-carboxamide]
Second: O=C(NCc1cc(C(F)(F)F)cc(C(F)(F)F)c1)C1(CC2CC2)CCN(Cc2cccc3c(=O)[nH]ccc23)CC1 [Example 9, N-(3,5-Bis(trifluoromethyl)benzyl)-4-(cyclopropylmethyl)-1-((1-oxo-1,2-dihydroisoquinolin-5-yl)methyl)piperidine-4-carboxamide]
The IC50 of the first is higher: > 1 µM for the first, 0.2 to 1 µM for the second.

O=C1COc2ccc(CCN3CCC(CC4CC4)(C(=O)NCc4cc(C(F)(F)F)cc(C(F)(F)F)c4)CC3)cc2N1 [Example 10, N-(3,5-Bis(trifluoromethyl)benzyl)-4-(cyclopropylmethyl)-1-(2-(3-oxo-3,4-dihydro-2H-benzo[b][1,4]oxazin-6-yl)ethyl)piperidine-4-carboxamide] and O=C(NCc1cc(C(F)(F)F)cc(C(F)(F)F)c1)C1(CC2CC2)CCN(Cc2ccc3ccc(=O)[nH]c3c2)CC1 [Example 11, N-(3,5-Bis(trifluoromethyl)benzyl)-4-(cyclopropylmethyl)-1-((2-oxo-1,2-dihydroquinolin-7-yl)methyl)piperidine-4-carboxamide] cannot be ordered by IC50: > 1 µM for the first, > 1 µM for the second.

CC(C)CC1(C(=O)NCc2cc(C(F)(F)F)cc(C(F)(F)F)c2)CCN(Cc2ccc3c(c2)OCCN3C)CC1 [Example 17, N-(3,5-Bis(trifluoromethyl)benzyl)-4-isobutyl-1-((4-methyl-3,4-dihydro-2H-benzo[b][1,4]oxazin-7-yl)methyl)piperidine-4-carboxamide] and CC(C)CC1(C(=O)NCc2cc(C(F)(F)F)cc(C(F)(F)F)c2)CCN(Cc2ccc3c(c2)nnn3C)CC1 [Example 18, N-(3,5-Bis(trifluoromethyl)benzyl)-4-isobutyl-1-((1-methyl-1H-benzo[d][1,2,3]triazol-5-yl)methyl)piperidine-4-carboxamide] cannot be ordered by IC50: > 1 µM for the first, > 1 µM for the second.

First: O=C(NCc1cc(C(F)(F)F)cc(C(F)(F)F)c1)C1(CC2CC2)CCN(Cc2ccc3nc[nH]c3c2)CC1 [Example 19, 1-((1H-Benzo[d]imidazol-6-yl)methyl)-N-(3,5-bis(trifluoromethyl)benzyl)-4-(cyclopropylmethyl)piperidine-4-carboxamide]
Second: Cn1c(=O)ccc2ccc(CN3CCC(CC4CC4)(C(=O)NCc4cc(C(F)(F)F)cc(C(F)(F)F)c4)C3)cc21 (stereo not drawn) [Example 20, N-(3,5-Bis(trifluoromethyl)benzyl)-3-(cyclopropylmethyl)-1-((1-methyl-2-oxo-1,2-dihydroquinolin-7-yl)methyl)pyrrolidine-3-carboxamide]
The IC50 of the first is higher: > 1 µM for the first, < 0.2 µM for the second. The second is the more potent here.

First: O=C(NCc1cc(C(F)(F)F)cc(C(F)(F)F)c1)C1(CC2CC2)CCN(Cc2ccc3[nH]ncc3c2)C1 (stereo not drawn) [Example 21, 1-((1H-Indazol-5-yl)methyl)-N-(3,5-bis(trifluoromethyl)benzyl)-3-(cyclopro-pylmethyl)pyrrolidine-3-carboxamide dihydrochloride]
Second: O=C1COc2ccc(CN3CCC(CC4CC4)(C(=O)NCc4cc(C(F)(F)F)cc(C(F)(F)F)c4)C3)cc2N1 (stereo not drawn) [Example 22, N-(3,5-Bis(trifluoromethyl)benzyl)-3-(cyclopropylmethyl)-1-((3-oxo-3,4-dihydro-2H-benzo[b][1,4]oxazin-6-yl)methyl)pyrrolidine-3-carboxamide]
The IC50 of the first is lower: < 0.2 µM for the first, 0.2 to 1 µM for the second.

Cn1c(=O)ccc2ccc(CN3CCC(CC4CC4)(C(=O)NCc4cc(C#N)cc(C(F)(F)F)c4)C3)cc21 (stereo not drawn) [Example 23, N-(3-Cyano-5-(trifluoromethyl)benzyl)-3-(cyclopropylmethyl)-1-((1-methyl-2-oxo-1,2-dihydroquinolin-7-yl)methyl)pyrrolidine-3-carboxamide TFA salt] and Cn1c(=O)oc2ccc(CN3CCC(CC4CC4)(C(=O)NCc4cc(C#N)cc(C(F)(F)F)c4)C3)cc21 (stereo not drawn) [Example 24, N-(3-Cyano-5-(trifluoromethyl)benzyl)-3-(cyclopropylmethyl)-1-((3-methyl-2-oxo-2,3-dihydrobenzo[d]oxazol-5-yl)methyl)pyrrolidine-3-carboxamide HCl salt] cannot be ordered by IC50: < 0.2 µM for the first, < 0.2 µM for the second.

Cn1c(=O)oc2ccc(CN3CCC(CC4CC4)(C(=O)NCc4cc(C(F)(F)F)cc(C(F)(F)F)c4)CC3)cc21 [Example 26, N-(3,5-Bis(trifluoromethyl)benzyl)-4-(cyclopropylmethyl)-1-((3-methyl-2-oxo-2,3-dihydrobenzo[d]oxazol-5-yl)methyl)piperidine-4-carboxamide] and CN1C(=O)COc2ccc(CN3CCC(CC4CC4)(C(=O)NCc4cc(C(F)(F)F)cc(C(F)(F)F)c4)CC3)cc21 [Example 27, N-(3,5-Bis(trifluoromethyl)benzyl)-4-(cyclopropylmethyl)-1-((4-methyl-3-oxo-3,4-dihydro-2H-benzo[b][1,4]oxazin-6-yl)methyl)piperidine-4-carboxamide] fall in the same range of IC50: 0.2 to 1 µM for the first, 0.2 to 1 µM for the second.

COCC1(C(=O)N2CC(c3cc(C(F)(F)F)ccn3)C2)CCN(Cc2ccc3oc(=O)n(C)c3c2)C1 (stereo not drawn) [Example 28, 5-((3-(Methoxymethyl)-3-(3-(4-(trifluoromethyl)pyridin-2-yl)azetidine-1-carbonyl)pyrrolidin-1-yl)methyl)-3-methylbenzo[d]oxazol-2(3H)-one] and COCC1(C(=O)N2CCN(c3cc(C(F)(F)F)ccn3)CC2)CCN(Cc2ccc3oc(=O)n(C)c3c2)C1 (stereo not drawn) [Example 29, 5-((3-(Methoxymethyl)-3-(4-(4-(trifluoromethyl)pyridin-2-yl)piperazine-1-carbonyl)pyrrolidin-1-yl)methyl)-3-methylbenzo[d]oxazol-2(3H)-one] fall in the same range of IC50: 0.2 to 1 µM for the first, 0.2 to 1 µM for the second.

For “N-(3,5-Bis(trifluoromethyl)benzyl)-4-(cyclopropylmethyl)-1-((3-methyl-2-oxo-2,3-dihydrobenzo[d]thiazol-6-yl)methyl)piperidine-4-carboxamide TFA salt [Example 25]”, the IC50 was < 0.2 µM.
